# Test results reported in patent US7449495B2, “Retinoid derivatives with antiangiogenic, antitumoral and proapoptotic activities” (Sigma-Tau Industrie Farmaceutiche Riunite S.p.A., priority 2001, dated 2008).
# Like-named read-outs stand apart in the source and are kept apart here.
# Assays:
# [1] = test system: F9 embryonic teratocarcinoma cells; conditions: cited from earlier work
# [2] = test system: NB4 acute promyelocytic leukaemia cell line; assay: Cytotoxicity test (sulphorodamine B), NB4; format: cell-based, human; conditions: 24 h incubation, survival 48 h after removal, read-out: IC50
# Text: To carry out the cytotoxicity tests, two acute promyelocytic leukaemia (APL) cell lines were used. • 1. Cell line NB4, carrying the chromosomal translocation t(15; 17) which generates the fusion protein PML/RARα. This cell line is extremely sensitive to the differentiating action of pharmaceutical doses of ATRA (10^−7-10^−6 M); • 2. Cell line HL60, which responds to ATRA less sensitively with respect to cell line NB4.
# These cell lines were maintained in RPMI 1640 containing 10% foetal calf serum (FCS) and 1% glutamine.
# The cytotoxicity tests were carried out using NB4 or HL-60 cells in suspension (10000/well). The cells were seeded in a volume of 250 μl in 96 well plates and incubated for 24 hours at 37° C. The following day, test compound ST 1926 [(2E)-3-[3′-(1-Adamantyl)-4′-hydroxy[1,1′-biphenyl]-4-yl]-2-propenoate/ic acid] was added at increasing concentrations, and the cells were incubated for a further 24 hours at 37° C. in a humidified atmosphere containing 5% CO2. On the 3rd day, the medium was removed by centrifuging the plate at 1600×g for 10 min and the supernatant decanted. 250 μl of PBS were added; then the plates were centrifuged again at 1600×g for 10 minutes and the supernatant decanted. 200 μl/well of RPMI 1640 medium containing 10% FCS were added and the plates were incubated at 37° C. for a further 48 hours. On the 5th day, the plates were again centrifuged at 1600×g for 10 minutes, and the medium was removed by upturning the plates, 200 μl of PBS and 50 μl of cold, 80% TCA were added. The plates were then left to incubate on ice for at least 1 hour. The TCA was removed by upturning; the plates were washed three times by immersion in distilled water and dried first on paper, then with a jet of hot air. To all wells were added 200 μl of 0.4% sulphorodamine B in 1% acetic acid. The plates were incubated at room temperature for a further 30 minutes. […] The optical density was measured using a Multiskan spectrophotometer at 540 nm.
# Cell survival was determined by incubation with ST1926 for 24 hours, 48 hours after the removal of the compound. […]
# [3] = test system: multidrug-resistant human ovarian carcinoma A2780/Dx; assay: Antitumoral activity in human ovarian carcinoma model A2780/Dx; format: in vivo, CD1 nu/nu mice; conditions: qdx5x3w
# Experimental: The human ovarian carcinoma cells A2780, A2780/Dx and NCIH460 were maintained in RPMI-1640 containing 10% FCS, 2 mM glutamine, 50 μg/ml gentamicin, at 37° C. in a humidified atmosphere containing 5% CO2. The cells were trypsinised, collected in complete medium, centrifuged at approx. 1100 rpm for 10 minutes and the precipitate resuspended in Hank's 199 Medium; this operation was carried out twice. The cells were resuspended in Hank's 199 Medium at a density of 20×10^6/ml and 0.1 ml (equal to 2×10^6 cells/mouse) were injected s.c. into the right flank of CD1 nu/nu 6 week-old, female mice.
# The ST1926 solution was prepared immediately before use and solubilised in cremophor:ethanol 1:1 and subsequently diluted 1:4 in buffered saline solution. The animal treatments were administered in a volume of 10 ml/kg. The treatment protocol for ST1926 at different doses was for 5 consecutive days (qd×5), beginning one day following tumor cell inoculation and repeated for 3 cycles. Measurements of tumor dimensions were performed using a digital calliper (Vernier Caliper) twice weekly, from the time in which the mass was measurable. The tumor mass was evaluated from the size of the two principal dimensions (length and breadth), expressed in mm, applying the formula (length×breadth^2)/2, that is, the tumor volume in mm3. For each experimental group, the percentage of tumor volume inhibition was calculated (TVI %), with respect to the control, namely (100−(T/C %). TVI was evaluated 2 days after the final administration of ST1926.
# The mice were measured until the control group tumors had reached a weight of 2 g, then the mice were sacrificed by cervical dislocation.
# A comparison between the TVI values obtained for each group was performed using the non parametric Mann Whitney test for non-paired data, using the Instat software from GraphPad inc.
# The mice were weighed prior to each treatment, firstly, so as to be able to administer the correct quantity of substance based on the possible changes in weight observed throughout the course of administration of the drug, and also to record the maximum weight loss throughout the treatment (BWL % max).
smiles,measurement,setting,value
"O=C(O)/C=C/c1ccc(-c2ccc(O)c(C34CC5CC(CC(C5)C3)C4)c2)cc1 [ST1926, E-4-(3-(1-adamantyl)-4-hydroxyphenyl)cinnamic acid]",activity in the F9 assay compared with compound 1 (in words),[1],lower activities
same,IC50,[2],0.02 µM
same,IC50,[2]; Homo sapiens,0.022 µM
same,BWL % Max,[3]; 10 mg/kg po,0%
same,Lethality,[3]; 10 mg/kg po,0/8
same,TVI % ± SE,[3]; 10 mg/kg po,*34 ± 3%
same,BWL % Max,[3]; 15 mg/kg po,6%
same,Lethality,[3]; 15 mg/kg po,0/8
same,TVI % ± SE,[3]; 15 mg/kg po,*54 ± 9%
